Laboratory results from ChEMBL document CHEMBL3991601, “The target landscape of clinical kinase drugs” (Science, 2017).
The source made the active and inactive calls.

Legend:
[1] = molecular target: T1, Ferrochelatase, mitochondrial (Homo sapiens, UniProt P22830)
T1 sequence (P22830 whole entry): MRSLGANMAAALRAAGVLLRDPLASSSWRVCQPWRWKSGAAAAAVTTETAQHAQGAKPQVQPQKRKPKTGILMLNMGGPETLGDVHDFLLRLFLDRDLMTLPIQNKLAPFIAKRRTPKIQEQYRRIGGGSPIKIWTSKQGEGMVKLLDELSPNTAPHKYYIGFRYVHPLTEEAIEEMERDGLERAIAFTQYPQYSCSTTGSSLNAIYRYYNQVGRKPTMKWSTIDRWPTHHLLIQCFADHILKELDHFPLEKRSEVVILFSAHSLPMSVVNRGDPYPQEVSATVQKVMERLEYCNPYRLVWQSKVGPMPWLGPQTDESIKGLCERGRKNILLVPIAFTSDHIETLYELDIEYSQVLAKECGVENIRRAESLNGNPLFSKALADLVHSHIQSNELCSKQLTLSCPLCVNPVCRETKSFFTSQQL

Heme oxygenase 2 = molecular target: T2, Heme oxygenase 2 (Homo sapiens, UniProt P30519)
T2 sequence (P30519 whole entry): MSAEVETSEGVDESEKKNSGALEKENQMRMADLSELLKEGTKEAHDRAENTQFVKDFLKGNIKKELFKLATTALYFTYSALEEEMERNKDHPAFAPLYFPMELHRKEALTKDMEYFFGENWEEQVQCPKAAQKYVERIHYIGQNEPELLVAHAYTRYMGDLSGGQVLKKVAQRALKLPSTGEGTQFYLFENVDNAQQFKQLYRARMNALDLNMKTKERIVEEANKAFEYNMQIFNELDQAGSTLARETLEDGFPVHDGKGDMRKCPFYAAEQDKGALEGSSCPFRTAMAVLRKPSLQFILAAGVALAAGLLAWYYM

[2] = molecular target: T3, Serine/threonine-protein kinase STK11 (Homo sapiens, UniProt Q15831)
T3 sequence (Q15831 whole entry): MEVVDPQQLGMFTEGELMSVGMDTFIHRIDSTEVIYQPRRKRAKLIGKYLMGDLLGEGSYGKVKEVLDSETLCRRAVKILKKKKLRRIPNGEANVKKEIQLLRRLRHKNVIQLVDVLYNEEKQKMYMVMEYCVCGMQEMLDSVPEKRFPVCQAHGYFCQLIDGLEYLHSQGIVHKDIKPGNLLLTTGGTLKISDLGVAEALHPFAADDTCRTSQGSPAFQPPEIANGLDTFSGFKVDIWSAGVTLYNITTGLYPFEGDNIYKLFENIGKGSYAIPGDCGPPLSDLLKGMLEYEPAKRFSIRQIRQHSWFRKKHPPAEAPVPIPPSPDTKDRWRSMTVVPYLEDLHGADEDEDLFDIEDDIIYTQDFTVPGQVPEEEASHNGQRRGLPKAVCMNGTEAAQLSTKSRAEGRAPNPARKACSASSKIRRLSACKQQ

[3] = molecular target: Tyrosine-protein kinase ABL2 (Homo sapiens, UniProt P42684)
Tyrosine-protein kinase ABL2, sequence (P42684 whole entry): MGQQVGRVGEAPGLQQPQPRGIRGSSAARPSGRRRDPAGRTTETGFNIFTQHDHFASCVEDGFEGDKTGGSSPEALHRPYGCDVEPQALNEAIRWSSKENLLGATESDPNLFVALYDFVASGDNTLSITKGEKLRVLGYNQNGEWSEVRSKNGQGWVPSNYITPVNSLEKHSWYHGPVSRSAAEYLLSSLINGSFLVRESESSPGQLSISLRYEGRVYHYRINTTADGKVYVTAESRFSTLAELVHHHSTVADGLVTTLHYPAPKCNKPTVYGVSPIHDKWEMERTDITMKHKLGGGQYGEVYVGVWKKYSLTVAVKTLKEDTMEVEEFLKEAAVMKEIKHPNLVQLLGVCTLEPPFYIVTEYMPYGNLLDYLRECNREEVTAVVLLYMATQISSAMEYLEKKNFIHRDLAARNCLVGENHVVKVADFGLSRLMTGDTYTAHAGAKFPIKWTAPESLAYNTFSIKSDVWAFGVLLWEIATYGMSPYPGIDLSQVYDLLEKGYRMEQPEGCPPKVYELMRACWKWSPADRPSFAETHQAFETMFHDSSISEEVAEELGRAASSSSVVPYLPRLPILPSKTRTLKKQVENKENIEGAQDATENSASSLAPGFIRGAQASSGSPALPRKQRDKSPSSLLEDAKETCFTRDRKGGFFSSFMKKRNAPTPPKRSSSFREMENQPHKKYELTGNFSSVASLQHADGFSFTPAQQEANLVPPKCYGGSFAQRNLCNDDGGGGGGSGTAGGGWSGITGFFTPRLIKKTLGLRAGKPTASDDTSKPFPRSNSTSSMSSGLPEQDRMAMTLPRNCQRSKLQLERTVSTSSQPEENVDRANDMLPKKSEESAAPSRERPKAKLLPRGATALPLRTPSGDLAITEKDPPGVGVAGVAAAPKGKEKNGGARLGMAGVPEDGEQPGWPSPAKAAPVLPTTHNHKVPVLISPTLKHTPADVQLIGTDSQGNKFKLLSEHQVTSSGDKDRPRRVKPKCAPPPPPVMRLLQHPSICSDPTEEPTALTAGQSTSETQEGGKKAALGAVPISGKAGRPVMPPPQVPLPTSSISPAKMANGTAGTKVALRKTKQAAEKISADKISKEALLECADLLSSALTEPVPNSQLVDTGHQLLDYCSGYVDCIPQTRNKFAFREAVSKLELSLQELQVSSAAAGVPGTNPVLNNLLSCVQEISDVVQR

[4] = molecular target: T4, Bifunctional phosphoribosylaminoimidazole carboxylase/phosphoribosylaminoimidazole succinocarboxamide synthetase (Homo sapiens, UniProt P22234)
T4 sequence (P22234 whole entry): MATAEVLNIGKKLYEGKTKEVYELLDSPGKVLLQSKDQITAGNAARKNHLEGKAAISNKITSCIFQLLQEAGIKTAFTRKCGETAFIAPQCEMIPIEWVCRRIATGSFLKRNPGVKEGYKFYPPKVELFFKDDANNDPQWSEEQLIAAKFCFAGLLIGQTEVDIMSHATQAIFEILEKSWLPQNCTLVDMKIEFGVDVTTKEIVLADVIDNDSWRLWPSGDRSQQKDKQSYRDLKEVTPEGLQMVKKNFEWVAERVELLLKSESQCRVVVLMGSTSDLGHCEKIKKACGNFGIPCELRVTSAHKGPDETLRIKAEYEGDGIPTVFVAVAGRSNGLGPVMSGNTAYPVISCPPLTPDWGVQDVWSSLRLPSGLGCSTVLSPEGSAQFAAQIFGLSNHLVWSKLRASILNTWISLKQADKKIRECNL

[5] = molecular target: Chromodomain-helicase-DNA-binding protein 4 (Homo sapiens, UniProt Q14839)
Chromodomain-helicase-DNA-binding protein 4, sequence (Q14839 whole entry): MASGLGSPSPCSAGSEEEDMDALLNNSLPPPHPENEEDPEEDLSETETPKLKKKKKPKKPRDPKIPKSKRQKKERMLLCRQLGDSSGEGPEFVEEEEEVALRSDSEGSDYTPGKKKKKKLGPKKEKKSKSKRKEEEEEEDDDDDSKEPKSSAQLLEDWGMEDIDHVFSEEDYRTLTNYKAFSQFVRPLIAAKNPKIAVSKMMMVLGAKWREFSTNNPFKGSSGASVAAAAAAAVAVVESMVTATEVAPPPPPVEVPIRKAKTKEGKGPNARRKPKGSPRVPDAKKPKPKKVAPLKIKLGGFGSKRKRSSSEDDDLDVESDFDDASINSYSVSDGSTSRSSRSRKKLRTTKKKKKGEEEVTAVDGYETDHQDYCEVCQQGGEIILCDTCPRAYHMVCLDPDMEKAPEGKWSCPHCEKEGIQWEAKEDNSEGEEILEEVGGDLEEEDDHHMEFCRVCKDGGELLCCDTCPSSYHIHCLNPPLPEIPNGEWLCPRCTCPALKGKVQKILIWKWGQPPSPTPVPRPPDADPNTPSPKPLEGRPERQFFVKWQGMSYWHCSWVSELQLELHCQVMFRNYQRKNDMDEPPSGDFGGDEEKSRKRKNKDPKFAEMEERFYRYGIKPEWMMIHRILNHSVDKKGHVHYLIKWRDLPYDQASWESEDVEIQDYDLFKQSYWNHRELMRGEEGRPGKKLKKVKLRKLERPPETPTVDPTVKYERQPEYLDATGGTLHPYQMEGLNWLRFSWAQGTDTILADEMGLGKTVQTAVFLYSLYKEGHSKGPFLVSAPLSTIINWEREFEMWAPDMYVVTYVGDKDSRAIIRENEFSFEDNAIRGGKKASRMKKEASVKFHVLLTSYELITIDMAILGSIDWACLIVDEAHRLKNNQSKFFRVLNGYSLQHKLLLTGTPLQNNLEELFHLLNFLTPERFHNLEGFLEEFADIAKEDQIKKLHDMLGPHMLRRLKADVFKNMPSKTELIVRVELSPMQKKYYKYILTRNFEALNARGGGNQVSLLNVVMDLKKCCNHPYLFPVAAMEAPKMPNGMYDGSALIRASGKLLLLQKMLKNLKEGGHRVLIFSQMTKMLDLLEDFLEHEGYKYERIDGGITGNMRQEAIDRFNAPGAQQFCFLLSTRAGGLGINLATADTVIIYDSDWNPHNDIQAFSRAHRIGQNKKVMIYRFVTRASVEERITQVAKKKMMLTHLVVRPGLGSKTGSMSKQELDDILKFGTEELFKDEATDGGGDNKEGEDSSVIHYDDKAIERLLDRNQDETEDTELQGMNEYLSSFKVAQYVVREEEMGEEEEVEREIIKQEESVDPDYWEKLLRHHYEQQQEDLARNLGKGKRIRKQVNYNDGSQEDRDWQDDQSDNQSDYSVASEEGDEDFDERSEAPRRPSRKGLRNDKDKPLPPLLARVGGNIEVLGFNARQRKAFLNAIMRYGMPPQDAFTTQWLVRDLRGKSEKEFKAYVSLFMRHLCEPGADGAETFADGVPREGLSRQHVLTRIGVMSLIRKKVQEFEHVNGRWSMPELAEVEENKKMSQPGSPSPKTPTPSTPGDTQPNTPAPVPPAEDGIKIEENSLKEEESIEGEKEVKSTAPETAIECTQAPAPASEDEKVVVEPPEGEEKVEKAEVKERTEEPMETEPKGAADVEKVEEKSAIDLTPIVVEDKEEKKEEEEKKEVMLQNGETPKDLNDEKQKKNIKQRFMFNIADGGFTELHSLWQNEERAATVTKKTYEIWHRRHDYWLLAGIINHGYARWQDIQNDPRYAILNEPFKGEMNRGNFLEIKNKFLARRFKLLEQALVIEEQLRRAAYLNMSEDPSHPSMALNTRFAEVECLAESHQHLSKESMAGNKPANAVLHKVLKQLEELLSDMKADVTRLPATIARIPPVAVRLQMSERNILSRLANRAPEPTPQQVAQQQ

[6] = molecular target: T5, Serine/threonine-protein kinase ULK1 (Homo sapiens, UniProt O75385)
T5 sequence (O75385 whole entry): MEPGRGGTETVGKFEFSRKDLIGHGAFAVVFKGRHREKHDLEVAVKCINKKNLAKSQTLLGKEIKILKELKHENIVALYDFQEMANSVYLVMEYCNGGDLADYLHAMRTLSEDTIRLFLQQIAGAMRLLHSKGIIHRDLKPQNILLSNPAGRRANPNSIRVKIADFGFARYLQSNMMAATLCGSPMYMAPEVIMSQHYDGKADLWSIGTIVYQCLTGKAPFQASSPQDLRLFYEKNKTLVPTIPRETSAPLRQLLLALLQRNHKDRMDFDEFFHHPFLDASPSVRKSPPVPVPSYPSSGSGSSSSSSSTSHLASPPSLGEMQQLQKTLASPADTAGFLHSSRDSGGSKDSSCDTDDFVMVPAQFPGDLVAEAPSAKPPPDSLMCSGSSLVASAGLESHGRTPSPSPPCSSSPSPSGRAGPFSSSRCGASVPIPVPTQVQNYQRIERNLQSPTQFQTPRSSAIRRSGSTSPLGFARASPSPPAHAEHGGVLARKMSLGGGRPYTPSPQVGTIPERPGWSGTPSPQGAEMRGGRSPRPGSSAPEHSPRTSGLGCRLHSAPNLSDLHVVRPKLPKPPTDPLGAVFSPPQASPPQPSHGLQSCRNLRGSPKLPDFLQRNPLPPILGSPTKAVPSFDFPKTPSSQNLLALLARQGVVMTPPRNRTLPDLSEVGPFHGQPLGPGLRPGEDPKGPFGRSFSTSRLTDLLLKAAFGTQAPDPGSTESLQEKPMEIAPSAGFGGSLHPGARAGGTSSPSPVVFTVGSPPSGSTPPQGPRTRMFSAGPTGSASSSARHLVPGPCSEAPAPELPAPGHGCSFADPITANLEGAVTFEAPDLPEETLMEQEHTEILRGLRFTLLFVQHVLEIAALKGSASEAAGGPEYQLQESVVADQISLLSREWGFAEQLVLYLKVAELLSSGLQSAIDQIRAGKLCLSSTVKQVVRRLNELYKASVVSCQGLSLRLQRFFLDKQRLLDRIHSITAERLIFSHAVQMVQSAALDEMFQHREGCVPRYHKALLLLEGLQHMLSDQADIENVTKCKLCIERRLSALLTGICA
Also: in the data inactive means no Kd found up to 30 µM.

Row | Kd [1] | Kd (Heme oxygenase 2) | Kd [2] | Kd [3] | Kd [4] | Kd [5] | Kd [6] | Compound
1 | > 30 µM (inactive) | > 30 µM (inactive) | > 30 µM (inactive) | > 30 µM (inactive) | > 30 µM (inactive) | > 30 µM (inactive) | > 30 µM (inactive) | COc1cc2ncnc(Nc3ccc(F)c(Cl)c3)c2cc1NC(=O)/C=C/CN1CCCCC1 [DACOMITINIB ANHYDROUS]
2 | > 30 µM (inactive) | > 30 µM (inactive) | > 30 µM (inactive) | > 30 µM (inactive) | > 30 µM (inactive) | > 30 µM (inactive) | > 30 µM (inactive) | C#Cc1cccc(Nc2ncnc3cc4c(cc23)OCCOCCOCCO4)c1 [ICOTINIB]
3 | > 30 µM (inactive) | > 30 µM (inactive) | > 30 µM (inactive) | > 30 µM (inactive) | > 30 µM (inactive) | > 30 µM (inactive) | > 30 µM (inactive) | COc1ccc2c(OCc3nnc4ccc(-c5ccccc5)nn34)ccnc2c1 [AMG-208]
4 | > 30 µM (inactive) | > 30 µM (inactive) | > 30 µM (inactive) | > 30 µM (inactive) | > 30 µM (inactive) | > 30 µM (inactive) | > 30 µM (inactive) | CNC(=O)c1cccc(-c2ccc3c(N4CCOC[C@@H]4C)nc(N4CCOC[C@@H]4C)nc3n2)c1 [VISTUSERTIB]
5 | 3.97 µM | > 30 µM (inactive) | > 30 µM (inactive) | > 30 µM (inactive) | > 30 µM (inactive) | > 30 µM (inactive) | > 30 µM (inactive) | COc1cc2ncnc3c2cc1OCCCCCN(C)Cc1ccc(Br)cc1N3 [JNJ-26483327]
6 | 2.63 µM (active) | > 30 µM (inactive) | > 30 µM (inactive) | 0.918 µM (active) | > 30 µM (inactive) | > 30 µM (inactive) | > 30 µM (inactive) | COc1cc2nccc(Oc3ccc(NC(=O)C4(C(=O)Nc5ccc(F)cc5)CC4)cc3)c2cc1OC [CABOZANTINIB]
7 | > 30 µM (inactive) | > 30 µM (inactive) | > 30 µM (inactive) | > 30 µM (inactive) | > 30 µM (inactive) | > 30 µM (inactive) | > 30 µM (inactive) | Cn1c(=O)c(F)c(Nc2ccc(I)cc2F)c2c(=O)n(C[C@@H](O)CO)cnc21 [TAK-733]
8 | > 30 µM (inactive) | > 30 µM (inactive) | > 30 µM (inactive) | 0.04 µM (active) | > 30 µM (inactive) | > 30 µM (inactive) | > 30 µM (inactive) | COc1cccc(Nc2ncnn3ccc(CN4CC[C@@H](N)[C@H](O)C4)c23)c1 [BMS-690514]
9 | > 30 µM (inactive) | > 30 µM (inactive) | > 30 µM (inactive) | > 30 µM (inactive) | > 30 µM (inactive) | > 30 µM (inactive) | > 30 µM (inactive) | COc1cc2ncnc(Nc3ccc(O)cc3)c2cc1OC [WHI-P131]
10 | > 30 µM (inactive) | > 30 µM (inactive) | > 30 µM (inactive) | > 30 µM (inactive) | > 30 µM (inactive) | > 30 µM (inactive) | > 30 µM (inactive) | O[C@H]1CC[C@H](Nc2ncc3nc(Nc4c(F)cc(F)cc4F)n([C@H]4CCOC4)c3n2)CC1 [TANZISERTIB]
11 | > 30 µM (inactive) | > 30 µM (inactive) | > 30 µM (inactive) | > 30 µM (inactive) | > 30 µM (inactive) | > 30 µM (inactive) | > 30 µM (inactive) | Cc1ccc(C(=O)Nc2ccc(Oc3cc4cnn(C)c4cc3-c3cn[nH]c3)c(F)c2)c(=O)n1-c1ccc(F)cc1 [MERESTINIB]
12 | > 30 µM (inactive) | > 30 µM (inactive) | > 30 µM (inactive) | > 30 µM (inactive) | > 30 µM (inactive) | > 30 µM (inactive) | > 30 µM (inactive) | Cn1c(=O)n(-c2ccc(C(C)(C)C#N)cc2)c2c3cc(-c4cnc5ccccc5c4)ccc3ncc21 [DACTOLISIB]
13 | 12.6 µM (active) | > 30 µM (inactive) | > 30 µM (inactive) | > 30 µM (inactive) | > 30 µM (inactive) | > 30 µM (inactive) | > 30 µM (inactive) | COc1cccc2cc(-c3nc([C@H]4CC[C@H](C(=O)O)CC4)n4ncnc(N)c34)[nH]c12 [OSI-027]

Row | Compound | Kd [1] | Kd (Heme oxygenase 2) | Kd [2] | Kd [3] | Kd [4] | Kd [5] | Kd [6]
14 | Cc1c(Cn2c(C)nc3c(C(=O)O)cc(N4CCOCC4)cc32)cccc1C(F)(F)F [GSK-2636771] | > 30 µM (inactive) | > 30 µM (inactive) | > 30 µM (inactive) | > 30 µM (inactive) | > 30 µM (inactive) | > 30 µM (inactive) | > 30 µM (inactive)
15 | CN(c1ncccc1CNc1nc(Nc2ccc3c(c2)CC(=O)N3)ncc1C(F)(F)F)S(C)(=O)=O [PF-00562271] | > 30 µM (inactive) | > 30 µM (inactive) | 0.626 µM (active) | > 30 µM (inactive) | > 30 µM (inactive) | > 30 µM (inactive) | > 30 µM (inactive)
16 | CCc1nc(C(N)=O)c(Nc2ccc(N3CCC(N4CCN(C)CC4)CC3)c(OC)c2)nc1NC1CCOCC1 [GILTERITINIB] | > 30 µM (inactive) | > 30 µM (inactive) | > 30 µM (inactive) | > 30 µM (inactive) | 5.48 µM | > 30 µM (inactive) | > 30 µM (inactive)
17 | Cn1cc(-c2[nH]c3cc(NC(=O)[C@H](N)C4CCCCC4)cc4c3c2C=NNC4=O)cn1 | > 30 µM (inactive) | > 30 µM (inactive) | 4.37 µM (active) | 1.37 µM (active) | > 30 µM (inactive) | > 30 µM (inactive) | > 30 µM (inactive)
18 | C=CC(=O)Nc1cc(Nc2nccc(-c3cn(C)c4ccccc34)n2)c(OC)cc1N(C)CCN(C)C [OSIMERTINIB] | > 30 µM (inactive) | > 30 µM (inactive) | > 30 µM (inactive) | > 30 µM (inactive) | > 30 µM (inactive) | > 30 µM (inactive) | > 30 µM (inactive)
